We go through two compounds from PubChem BioAssay AID743164 (Broad Institute, 2013).

Test [1] is described as follows: IC90 against starved M. tuberculosis, dose response, CFU by imaging, dry powder, 7108-04 (AID 743164). As to conditions: Mycobacterium tuberculosis, starved, CFU imaging.
The subject of test [2] is Mycobacterium tuberculosis, starved, CFU imaging. Described as above.

As a reminder, the IC90 is the concentration needed for an effect of 90%.

The structures appear in SMILES notation. Calls of active or inactive are those of the source. How the calls were made is not given here.

Take `CCOC(=O)NC(=O)c1ccsc1NC(=O)c1nc2ccccc2s1`: the result in test [1] was inactive.

Regarding `Cn1c(NC(=O)c2ccccc2)nc2ccccc21`, the IC90 in test [2] was less than 8 µM.
